The record followed here is patent US11344627B2, “Dendrimer-exosome hybrid nanoparticles as a delivery platform” (WISCONSIN ALUMNI RESEARCH FOUNDATION, priority 2017, dated 2022).

“Also recorded” adds a separate entry of the source.

For this assay, the system named is HUVEC cells. The assay is described as follows: Immunostaining of P-selectin and VCAM-1 on endothelial cells upon TNF-α treatment. Type of assay: cell-based, human. The note with it: TNF-α 20 ng/mL, 4 hrs, confocal. Here is the method:
Immunostaining: To determine P-selectin and VCAM-1 expression on endothelial cells upon TNF-α-treatment, HUVEC cells were cultured on a cover glass and treated with 20 ng/mL of TNF-α at 37° C. for 4 hrs. The cells were fixed with 4% paraformaldehyde and blocked using a 5% BSA solution in PBS for 30 min. The cells were then incubated with primary antibodies against P-selectin or VCAM-1 for 1 hr at room temperature. The cells were incubated with fluorescence-labeled secondary antibodies for 1 hr at room temperature. The cells were washed, mounted with a mounting medium, and observed using a confocal microscope (Zeiss, Dublin, Calif.).
Potential advantages of using hMSC-derived exosomes would include the utilization of the homing properties of hMSCs to inflamed endothelia that are frequently found in cancerous regions. […] Human umbilical vein endothelial cells (HUVEC) were used to determine if the exosomes could potentially interact with the cells upon activation using TNF-α. TNF-α is known to induce expression of vascular cell adhesion molecule-1 (VCAM-1) and P-selectin that are directly involved in the hMSC binding to endothelial layers. The expression of VLA-4 and CD162 that are ligands binding to VCAM-1 and P-selectin, respectively, from the exosomes was confirmed using western blotting (FIG. 9).

In the case of TNF-α, the P-selectin expression result is recorded as “overexpress; also recorded: increased” and the VCAM-1 expression entry is on record as “overexpress; also recorded: increased”.
